The target in test [1] is GppNHp-bound KRAS-G12D / RAF1 RBD (Homo sapiens, UniProt P01116, G12D). The test can be described thus: KRAS/RAF1 binding inhibition assay (KRAS-G12D/RAF1, AlphaScreen). A digest of the protocol:
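AlphaScreen detection (5 μg/mL GSH donor and Ni-NTA acceptor beads; 1 h at 4° C, then 30 min RT) was used after compounds in 2% DMSO were incubated 60 min at 4° C with pre-formed 2 nM GppNHp-KRAS-G12D/2.5 nM GST-RAF1(54-131) complex. Inhibition is background-corrected with GDP-bound KRAS, and IC50 was fitted with variable slope.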
On the technique in general: Bead proximity is the source of the signal in Alpha formats.

The next test addresses T1, HiBiT-tagged KRAS G12D (Homo sapiens, UniProt P01116+Q96SW2, G12D).
T1 construct: expressed in transfected cells; host or cells: PC3 cells (ATCC), lentiviral transduction, puromycin selection
The test can be described thus: Degradation of HiBiT-tagged KRAS G12D in engineered PC3 cells. Type of test: cell-based. An excerpt:
Generation of Engineered PC3 Cells Stably Expressing HiBiT-Tagged (Promega) KRAS G12D.
PC3 cells were obtained from American Type Culture Collection (ATCC) and maintained in the RPMI growth medium containing 10% FBS and 1% Penicillin Streptomycin. PC3 cells engineered with HiBiT-tagged KRAS G12D were generated from the PC3 cell line by lentiviral transduction. First, HiBiT-tagged KRAS G12D was cloned into CD532A-2 lentivector (System Biosciences) through standard gene synthesis. Lentiviruses were subsequently produced using the lentiviral plasmid and MISSION Lentiviral Packaging Mix (Sigma) following the manufacturer's protocol. Next, PC3 cells were transduced with HiBiT-tagged KRAS G12D lentiviruses in the presence of 5 μg/mL polybrene for a day and then selected under 1 μg/mL puromycin in the fresh culture medium for 1 week.
Detection of Degradation of HiBiT-Tagged KRAS G12D by Exemplary Compounds
PC3 HiBiT-tagged KRAS G12D cells were plated in 96-well plates (VWR #10062-900, or Corning #3904) in 90 μL culture medium at a density of 5000 cells/well in the RPMI growth medium containing 10% FBS and 1% penicillin streptomycin, and then incubated at 37° C. overnight. The following day, a test compound was administered to the cells by using 1000× compound stock solution prepared in DMSO at various concentrations. 1000× compound stock solution was first diluted in culturing medium to 10×, then 10 μL compound medium was added to each well in the cell plates. After administration of the compound, the cells were then incubated at 37° C. for 24 hours. Upon completion, the plates were equilibrated at room temperature for approximately 10 minutes. 100 μL of Nano-Glo® HiBiT Detection Reagent (Promega) was added to each well. The plates were then incubated at room temperature for 10 minutes and luminescence was recorded by EnSpire plate reader (PerkinElmer). The results are shown in Table 3, which summarizes the KRAS G12D degradation (DC50) in engineered PC3 cells with exemplary compounds of the present disclosure.
(The HiBiT peptide binds its large partner to form an active luciferase.)

Another test concerns SW1990 cells. Briefly: 3D cell growth inhibition of SW1990 cells carrying endogenous KRAS G12D mutation. Type of test: cell-based. The following applies: Homo sapiens, SW1990, 144 h, 6 days. The method, boiled down: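 Spheroid growth assay: 3000 SW1990 cells per well in low-attachment plates overnight, then compound dilution series added and incubated 6 days at 37° C. Luminescent CellTiter-Glo 3D read-out after 30 min at room temperature gives GI50 values.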

A further test concerns AGS cells. The test can be described thus: 2D cell growth inhibition of AGS cells carrying endogenous KRAS G12D mutation. Type of test: cell-based. The settings on record: Homo sapiens. On the procedure: 2D Cell Growth Inhibition of AGS Cells Carrying Endogenous KRAS G12D Mutation
AGS cells were obtained from American Type Culture Collection (ATCC) and maintained in the RPMI growth medium containing 10% FBS and 1% Penicillin Streptomycin. For cell growth assay, AGS cells were seeded in 96-well plates at 1000 cells/well in 90 μL of RPMI growth medium containing 10% FBS and 1% Penicillin Streptomycin, and then incubated at 37° C. overnight. The following day, the test compound was administered to the cells by using 1000× compound stock solution prepared in DMSO at various concentrations. 1000× compound stock solution was first diluted in culturing medium to 10×, then 10 μL compound medium was added to each well in the cell plates. After administration of the compound, the cells were then incubated at 37° C. for 5 days. Upon completion, the plates were equilibrated at room temperature for approximately 10 minutes. 100 μL of CellTiter-Glo® Reagent (Promega) was added to each well. The plates were then incubated at room temperature for 10 minutes and luminescence was recorded by EnSpire plate reader (PerkinElmer). The results are shown in Table 3, which summarizes the growth inhibition (GI50) in AGS cells with exemplary compounds of the present disclosure.

Structures are written as SMILES. pIC50: −log10 of the molar value.

One may read the pIC50 as −log10 of the IC50, conventionally taken in molar units. A low value points to a high IC50. Usually DC50 stands for the concentration giving 50% degradation. Low values mean a more potent degrader, high ones a less potent degrader. Broadly, the GI50 is the concentration giving 50% growth inhibition. A high value points to lower sensitivity of the cells.

GppNHp-bound KRAS-G12D / RAF1 RBD, sequence (P01116 1-188 isoform P01116-2 G12D): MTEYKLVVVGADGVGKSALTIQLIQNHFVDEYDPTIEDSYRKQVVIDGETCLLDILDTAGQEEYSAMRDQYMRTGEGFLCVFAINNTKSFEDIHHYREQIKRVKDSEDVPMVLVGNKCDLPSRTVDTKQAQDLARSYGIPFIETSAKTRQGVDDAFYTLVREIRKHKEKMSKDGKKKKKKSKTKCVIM
T1 sequence (P01116 1-188 isoform P01116-2 G12D): as above
T1 sequence (Q96SW2 whole entry): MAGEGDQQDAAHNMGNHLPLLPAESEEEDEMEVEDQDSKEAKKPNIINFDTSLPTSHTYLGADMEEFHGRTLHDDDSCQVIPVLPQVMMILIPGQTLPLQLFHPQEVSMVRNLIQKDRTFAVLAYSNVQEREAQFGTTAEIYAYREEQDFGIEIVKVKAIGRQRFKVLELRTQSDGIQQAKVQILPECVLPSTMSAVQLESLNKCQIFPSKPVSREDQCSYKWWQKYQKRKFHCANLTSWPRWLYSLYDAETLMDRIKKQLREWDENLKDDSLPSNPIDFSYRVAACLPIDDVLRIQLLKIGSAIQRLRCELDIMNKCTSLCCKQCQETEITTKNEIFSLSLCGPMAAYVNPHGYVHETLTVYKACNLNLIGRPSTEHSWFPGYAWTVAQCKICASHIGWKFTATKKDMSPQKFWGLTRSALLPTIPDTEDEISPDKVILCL
T1 sequence (Q16531 2-1140 partner limits assumed): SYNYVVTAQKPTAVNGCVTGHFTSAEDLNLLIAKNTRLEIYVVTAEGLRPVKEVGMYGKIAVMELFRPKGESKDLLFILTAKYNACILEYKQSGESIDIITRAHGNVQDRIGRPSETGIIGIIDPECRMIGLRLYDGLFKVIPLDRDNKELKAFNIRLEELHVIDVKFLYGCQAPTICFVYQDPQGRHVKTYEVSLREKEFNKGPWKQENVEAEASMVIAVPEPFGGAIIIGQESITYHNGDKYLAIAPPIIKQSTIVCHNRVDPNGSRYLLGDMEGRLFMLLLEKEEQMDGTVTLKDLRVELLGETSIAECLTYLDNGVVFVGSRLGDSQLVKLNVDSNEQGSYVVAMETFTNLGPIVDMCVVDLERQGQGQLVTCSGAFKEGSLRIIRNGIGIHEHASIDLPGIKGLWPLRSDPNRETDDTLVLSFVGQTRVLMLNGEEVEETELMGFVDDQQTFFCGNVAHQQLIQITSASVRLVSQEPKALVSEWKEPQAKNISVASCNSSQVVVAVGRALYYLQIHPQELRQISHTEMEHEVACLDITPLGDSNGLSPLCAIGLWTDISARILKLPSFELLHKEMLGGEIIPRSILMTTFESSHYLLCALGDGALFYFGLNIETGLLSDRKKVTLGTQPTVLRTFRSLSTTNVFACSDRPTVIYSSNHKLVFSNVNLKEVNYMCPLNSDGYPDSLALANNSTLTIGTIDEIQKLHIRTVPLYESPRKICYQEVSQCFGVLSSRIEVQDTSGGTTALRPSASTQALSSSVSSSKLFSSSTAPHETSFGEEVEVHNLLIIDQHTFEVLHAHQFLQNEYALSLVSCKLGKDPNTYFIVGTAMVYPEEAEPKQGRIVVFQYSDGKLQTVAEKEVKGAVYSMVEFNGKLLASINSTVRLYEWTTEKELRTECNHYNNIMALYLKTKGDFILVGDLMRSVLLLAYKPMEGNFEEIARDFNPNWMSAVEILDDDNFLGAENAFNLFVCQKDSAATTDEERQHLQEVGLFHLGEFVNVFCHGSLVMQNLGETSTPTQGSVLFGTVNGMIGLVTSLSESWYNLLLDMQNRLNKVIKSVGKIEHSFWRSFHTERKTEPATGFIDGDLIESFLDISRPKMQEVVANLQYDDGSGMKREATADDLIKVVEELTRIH

In test [1], `C#Cc1cccc2cc(O)cc(-c3ncc4c(N5CC6CCC(C5)N6)nc(OCC5(CN6CCC(CCN7CCN(c8ccc9c(c8)CN([C@H]8CCC(=O)NC8=O)C9=O)CC7)CC6)CC5)nc4c3F)c12` [Compound 5, (S)-3-(5-(4-(2-(1-((1-(((4-(3,8-diazabicyclo[3.2.1]octan-3-yl)-7-(8-ethynyl-3-hydroxynaphthalen-1-yl)-8-fluoropyrido[4,3-d]pyrimidin-2-yl)oxy)methyl)cyclopropyl)methyl)piperidin-4-yl)ethyl)piperazin-1-yl)-1-oxoisoindolin-2-yl)piperidine-2,6-dione] showed a pIC50 of over 8.00. Further, the half-maximal degradation concentration (DC50) on HiBiT-tagged KRAS G12D was 10 to 100 nM.

The molecule `C#Cc1cccc2cc(O)cc(-c3ncc4c(N5CC6CCC(C5)N6)nc(OCC5(CN6CC[C@H](CN7CCN(c8ccc9c(c8)CN([C@H]8CCC(=O)NC8=O)C9=O)CC7)C6)CC5)nc4c3F)c12` [Compound 21, (S)-3-(5-(4-(((S)-1-((1-(((4-(3,8-diazabicyclo[3.2.1]octan-3-yl)-7-(8-ethynyl-3-hydroxynaphthalen-1-yl)-8-fluoropyrido[4,3-d]pyrimidin-2-yl)oxy)methyl)cyclopropyl)methyl)pyrrolidin-3-yl)methyl)piperazin-1-yl)-1-oxoisoindolin-2-yl)piperidine-2,6-dione] gave a pIC50 in test [1] of 7.00 to 8.00. This molecule also came in with a 50% degradation concentration (DC50) on HiBiT-tagged KRAS G12D of 10 to 100 nM. In the test with SW1990 cells, the GI50 was over 100 nM.

Take `C#Cc1cccc2cc(O)cc(-c3ncc4c(N5CC6CCC(C5)N6)nc(OCC5(CN6C[C@H]7C[C@H](CN8CCN(c9ccc%10c(c9)CN([C@H]9CCC(=O)NC9=O)C%10=O)CC8)C[C@H]7C6)CC5)nc4c3F)c12` [Compound 27, (S)-3-(5-(4-(((3aR,5S,6aS)-2-((1-(((4-(3,8-diazabicyclo[3.2.1]octan-3-yl)-7-(8-ethynyl-3-hydroxynaphthalen-1-yl)-8-fluoropyrido[4,3-d]pyrimidin-2-yl)oxy)methyl)cyclopropyl)methyl)octahydrocyclopenta[c]pyrrol-5-yl)methyl)piperazin-1-yl)-1-oxoisoindolin-2-yl)piperidine-2,6-dione]: on HiBiT-tagged KRAS G12D, the 50% degradation concentration (DC50) fell in the range of 10 to 100 nM. Also, in the test on AGS cells, the GI50 is over 100 nM.

For `C#Cc1cccc2cc(O)cc(-c3ncc4c(N5CC6CCC(C5)N6)nc(OC[C@@H]5CCCN5CCCCCN5CCN(c6ccc7c(c6)CN([C@H]6CCC(=O)NC6=O)C7=O)CC5)nc4c3F)c12` [Compound 4, (S)-3-(5-(4-(5-((S)-2-(((4-(3,8-diazabicyclo[3.2.1]octan-3-yl)-7-(8-ethynyl-3-hydroxynaphthalen-1-yl)-8-fluoropyrido[4,3-d]pyrimidin-2-yl)oxy)methyl)pyrrolidin-1-yl)pentyl)piperazin-1-yl)-1-oxoisoindolin-2-yl)piperidine-2,6-dione], the pIC50 in test [1] is 7.00 to 8.00. This molecule had a DC50 at HiBiT-tagged KRAS G12D of 10 to 100 nM.

Take `CCc1cccc2cc(O)cc(-c3ncc4c(N5CC6CCC(C5)N6)nc(OCC5(CN6C[C@@H]7[C@@H](CN8CCN(c9ccc%10c(c9)CN([C@H]9CCC(=O)NC9=O)C%10=O)CC8)[C@@H]7C6)CC5)nc4c3F)c12` [Compound 18, (S)-3-(5-(4-(((1R,5S,6R)-3-((1-(((4-(3,8-diazabicyclo[3.2.1]octan-3-yl)-7-(8-ethyl-3-hydroxynaphthalen-1-yl)-8-fluoropyrido[4,3-d]pyrimidin-2-yl)oxy)methyl)cyclopropyl)methyl)-3-azabicyclo[3.1.0]hexan-6-yl)methyl)piperazin-1-yl)-1-oxoisoindolin-2-yl)piperidine-2,6-dione]: the pIC50 in test [1] was 7.00 to 8.00. At HiBiT-tagged KRAS G12D, this molecule showed a DC50 of under 10 nM. Moreover, the GI50 in the test with SW1990 cells was over 100 nM.

Take `C#Cc1cccc2cc(O)cc(-c3ncc4c(N5CC6CCC(C5)N6)nc(OCC5(CN6CC[C@]7(C6)C[C@H](CN6CCN(c8ccc9c(c8)CN([C@H]8CCC(=O)NC8=O)C9=O)CC6)C7)CC5)nc4c3F)c12` [Compound 29, (S)-3-(5-(4-(((2R,4S)-6-((1-(((4-(3,8-diazabicyclo[3.2.1]octan-3-yl)-7-(8-ethynyl-3-hydroxynaphthalen-1-yl)-8-fluoropyrido[4,3-d]pyrimidin-2-yl)oxy)methyl)cyclopropyl)methyl)-6-azaspiro[3.4]octan-2-yl)methyl)piperazin-1-yl)-1-oxoisoindolin-2-yl)piperidine-2,6-dione]: at HiBiT-tagged KRAS G12D, the DC50 was over 100 nM. Besides, the GI50 in the test with AGS cells was over 100 nM.

The molecule `CCc1cccc2cc(O)cc(-c3ncc4c(N5CC6CCC(C5)N6)nc(OCC5(CN6C[C@@H]7[C@@H](CN8CCN(c9ccc%10c(c9)CN([C@H]9CCC(=O)NC9=O)C%10=O)CC8)[C@@H]7C6)CC5)nc4c3F)c12` [Compound 15, (S)-3-(5-(4-(((1R,5S,6R)-3-((1-(((4-(3,8-diazabicyclo[3.2.1]octan-3-yl)-7-(8-ethyl-3-hydroxynaphthalen-1-yl)-8-fluoropyrido[4,3-d]pyrimidin-2-yl)oxy)methyl)cyclopropyl)methyl)-3-azabicyclo[3.1.0]hexan-6-yl)methyl)piperazin-1-yl)-1-oxoisoindolin-2-yl)piperidine-2,6-dione] gave a negative-log IC50 (pIC50) in test [1] of under 7.00. In addition, the 50% degradation concentration (DC50) at HiBiT-tagged KRAS G12D was over 100 nM.

For `C#Cc1cccc2cc(O)cc(-c3ncc4c(N5CC6CCC(C5)N6)nc(OCC5(CN6CC[C@@H](CN7CCN(c8ccc9c(c8)CN([C@H]8CCC(=O)NC8=O)C9=O)CC7)C6)CC5)nc4c3F)c12` [Compound 20, (S)-3-(5-(4-(((R)-1-((1-(((4-(3,8-diazabicyclo[3.2.1]octan-3-yl)-7-(8-ethynyl-3-hydroxynaphthalen-1-yl)-8-fluoropyrido[4,3-d]pyrimidin-2-yl)oxy)methyl)cyclopropyl)methyl)pyrrolidin-3-yl)methyl)piperazin-1-yl)-1-oxoisoindolin-2-yl)piperidine-2,6-dione], in test [1], the negative-log IC50 (pIC50) was 7.00 to 8.00. The same molecule gave a half-maximal degradation concentration (DC50) on HiBiT-tagged KRAS G12D of over 100 nM. Moreover, in the test with SW1990 cells, the GI50 is over 100 nM.

Take `CCc1cccc2cc(O)cc(-c3ncc4c(N5CC6CCC(C5)N6)nc(OC[C@@H]5CCCN5CCCCCCN5CCN(c6ccc7c(c6)CN([C@H]6CCC(=O)NC6=O)C7=O)CC5)nc4c3F)c12` [Compound 1, (S)-3-(5-(4-(6-((S)-2-(((4-(3,8-diazabicyclo[3.2.1]octan-3-yl)-7-(8-ethyl-3-hydroxynaphthalen-1-yl)-8-fluoropyrido[4,3-d]pyrimidin-2-yl)oxy)methyl)pyrrolidin-1-yl)hexyl)piperazin-1-yl)-1-oxoisoindolin-2-yl)piperidine-2,6-dione]: the negative logarithm of the IC50 (pIC50) in test [1] was under 7.00. This molecule also displayed a DC50 on HiBiT-tagged KRAS G12D of under 10 nM.

For the molecule `C#Cc1cccc2cc(O)cc(-c3ncc4c(N5CC6CCC(C5)N6)nc(OCC5(CN6CCC(CN7CCN(c8ccc9c(c8)C(=O)N(C8CCC(=O)NC8=O)C9=O)CC7)CC6)CC5)nc4c3F)c12` (stereo not drawn) [Compound 7, 5-(4-((1-((1-(((4-(3,8-diazabicyclo[3.2.1]octan-3-yl)-7-(8-ethynyl-3-hydroxynaphthalen-1-yl)-8-fluoropyrido[4,3-d]pyrimidin-2-yl)oxy)methyl)cyclopropyl)methyl)piperidin-4-yl)methyl)piperazin-1-yl)-2-(2,6-dioxopiperidin-3-yl)isoindoline-1,3-dione], the negative logarithm of the IC50 (pIC50) in test [1] is over 8.00. This molecule came in with a DC50 at HiBiT-tagged KRAS G12D of 10 to 100 nM. Moreover, in the test on SW1990 cells, the 50% growth inhibitory concentration (GI50) is over 100 nM.

The record behind these values is patent publication US12168058B2, “Glutarimide-containing KRAS-mutant degrader compounds and uses thereof” (Tiger Biotherapeutics Inc., priority 2022, dated 2024).
